{
  "source": "patent US12070458B2",
  "about": "“Therapeutic agent composition and method of use, for treatment of mild congnitive impairment, depression, and psychological disorders” (priority 2018, dated 2024)",
  "system": "scopolamine-induced memory impairment",
  "assay": "Morris Water Maze, scopolamine-induced memory impairment",
  "format": "in vivo, Wistar rats",
  "conditions": "20 mg/kg; daily, oral; scopolamine 0.5 mg/kg i.p.",
  "data": [
    {"smiles": "O=C1NCC(=O)N2CCC[C@@H]12", "note": "[cPG, cyclic Prolyl Glycine]", "values": [
      {"measurement": "cognitive impairment induced by scopolamine (time to platform)", "value": "significantly reversed"}
    ]}
  ]
}
